Experimental data as given in patent US8450266B2 (Ipsen Pharma S.A.S., priority 2008, dated 2013).
Where a SMILES comes first, the peptide text is derived from it. [ ]: non-standard residue; d: D form. The star is where a group is joined. Cyclohexanecarbonyl = O=C(C1CCCCC1)*; Ac6c = NC1(C(=O)O)CCCCC1; Orn = NCCC[C@H](N)C(=O)O; X1 = CCCN1C(=O)CC(*)C1=O; Hexanoyl = CCCCCC(=O)*

Key:
[1] = Human plasma half-life assay (LC-MS); format: in vitro ADME; conditions: incubated at 37° C., read-out: Human Plasma T½ (converted)
Method: (§1) B. Human and Rat Plasma Half-Life Assay
(§2) 50 μl, was removed at various times, like at 0, 1, 2, 3, 4, 8, 24, 32, 48, 56, 72 hours, mixed with 5 μL formic acid and 150 μL acetonitrile in a microcentrifuge tube, vertexed, and centrifuged for 10 minutes at 10K rpm. The supernatant was transferred to an injection vial and analyzed by LC-MS. The LC-MS system consisted of an API4000 mass spectrometer with an ESI probe. Positive ion mode and full scan detection were used. HPLC separation was carried out on a Luna 3μ C8 (2), 2×30 mm column with a gradient from 90% A to 90% B in 10 minutes at a flow rate of 0.3 ml/min. Buffer A was 1% formic acid in water and buffer B was 1% formic acid acetonitrile.

[2] = Rat plasma half-life assay (LC-MS); format: in vitro ADME; conditions: incubated at 37° C., read-out: Rat Plasma T½ (converted)
Method: as §1, §2

Structure (SMILES) | half-life at 0.1 mg/mL [1] | half-life at 0.1 mg/mL [2] | half-life at 0.1 mg/ml [1] | half-life at 0.1 mg/ml [2]
CCCN1C(=O)CC(SC[C@H](NC(=O)[C@H](CC(N)=O)NC(=O)[C@H](Cc2c[nH]cn2)NC(=O)[C@H](CCCCN)NC(=O)[C@H](Cc2c[nH]c3ccccc23)NC(=O)[C@H](CC(=O)O)NC(=O)[C@H](CC(N)=O)NC(=O)[C@H](CCCCN)NC(=O)[C@H](CCCCN)NC(=O)CNC(=O)[C@H](CCCCN)NC(=O)[C@H](CCC(N)=O)NC(=O)[C@H](C)NC(=O)[C@H](CC(C)C)NC(=O)[C@H](CC(C)C)NC(=O)[C@H](Cc2c[nH]c3ccccc23)NC(=O)[C@H](CC(N)=O)NC(=O)[C@@H](NC(=O)[C@H](Cc2ccccc2)NC(=O)[C@H](CC(=O)O)NC(=O)[C@H](CCC(N)=O)NC(=O)[C@H](CCC(N)=O)NC(=O)[C@H](Cc2c[nH]cn2)NC(=O)[C@@H](NC(=O)[C@H](CCCCN)NC(=O)[C@H](CC(=O)O)NC(=O)[C@H](CCSC)NC(=O)[C@H](C)NC(=O)[C@@H](NC(=O)[C@H](CO)NC(=O)[C@H](Cc2ccc(O)cc2)NC(=O)[C@H](CC(=O)O)NC(=O)[C@H](CO)NC(=O)C2(NC(C)=O)CCCCC2)[C@@H](C)CC)[C@@H](C)CC)C(C)C)C(=O)N[C@H](C(=O)N[C@@H](CCC(N)=O)C(=O)O)[C@@H](C)O)C1=O (stereo partly drawn) [Example 2, [Ac-A6c^7, Cys(Psu)^40]hGIP(7-42)-OH] (Ac-[Ac6c]SDYSIAMDKIHQQDFVNWLLAQKGKKNDWKHNC(X1)TQ-OH) | 822 min | 432 min | – | –
CC[C@H](C)[C@H](NC(=O)[C@H](CO)NC(=O)[C@H](Cc1ccc(O)cc1)NC(=O)[C@H](CC(=O)O)NC(=O)[C@H](CO)NC(=O)[C@@H](NC(=O)[C@H](Cc1ccccc1)NC(=O)[C@@H](NC(=O)CNC(=O)[C@H](CCC(=O)O)NC(=O)CCc1ccc(O)cc1)[C@@H](C)O)[C@@H](C)CC)C(=O)N[C@@H](C)C(=O)NC1(C(=O)N[C@@H](CC(=O)O)C(=O)N[C@@H](CCCCN)C(=O)N[C@H](C(=O)N[C@@H](Cc2c[nH]cn2)C(=O)N[C@@H](CCC(N)=O)C(=O)N[C@@H](CCC(N)=O)C(=O)N[C@@H](CC(=O)O)C(=O)N[C@@H](Cc2ccccc2)C(=O)N[C@H](C(=O)N[C@@H](CC(N)=O)C(=O)N[C@@H](Cc2c[nH]c3ccccc23)C(=O)N[C@@H](CC(C)C)C(=O)N[C@@H](CC(C)C)C(=O)N[C@@H](C)C(=O)N[C@@H](CCC(N)=O)C(=O)N[C@@H](CCCCN)C(=O)NCC(=O)N[C@@H](CCCCN)C(=O)N[C@@H](CCCCN)C(=O)N[C@@H](CC(N)=O)C(=O)N[C@@H](CC(=O)O)C(=O)N[C@@H](Cc2c[nH]c3ccccc23)C(=O)N[C@@H](CCCCN)C(=O)N[C@@H](Cc2c[nH]cn2)C(=O)N[C@@H](CC(N)=O)C(=O)N[C@H](C(=O)N[C@H](C(=O)N[C@@H](CCC(N)=O)C(=O)O)[C@@H](C)O)[C@@H](C)CC)C(C)C)[C@@H](C)CC)CCCCC1 [Example 45, (4Hppa^2, A6c^14)hGIP(2-42)-OH] | 3850 min | 258 min | – | –
CCCN1C(=O)CC(SC[C@H](NC(=O)[C@H](CCCCN)NC(=O)[C@H](CCC(N)=O)NC(=O)[C@H](C)NC(=O)[C@H](CC(C)C)NC(=O)[C@H](CC(C)C)NC(=O)[C@H](Cc2c[nH]c3ccccc23)NC(=O)[C@H](CC(N)=O)NC(=O)[C@@H](NC(=O)[C@H](Cc2ccccc2)NC(=O)[C@H](CC(=O)O)NC(=O)[C@H](CCC(N)=O)NC(=O)[C@H](CCC(N)=O)NC(=O)[C@H](Cc2c[nH]cn2)NC(=O)[C@@H](NC(=O)[C@H](CCCCN)NC(=O)[C@H](CC(=O)O)NC(=O)[C@H](CCSC)NC(=O)[C@H](C)NC(=O)[C@@H](NC(=O)[C@H](CO)NC(=O)[C@H](Cc2ccc(O)cc2)NC(=O)[C@H](CC(=O)O)NC(=O)[C@H](CO)NC(=O)C2CCCCC2)[C@@H](C)CC)[C@@H](C)CC)C(C)C)C(=O)N[C@@H](CCCCN)C(=O)N[C@@H](CCCCN)C(=O)N[C@@H](CC(N)=O)C(=O)N[C@@H](CC(=O)O)C(=O)N[C@@H](Cc2c[nH]c3ccccc23)C(=O)N[C@@H](CCCCN)C(=O)N[C@@H](Cc2c[nH]cn2)C(=O)N[C@@H](CC(N)=O)C(=O)N[C@H](C(=O)N[C@H](C(=O)N[C@@H](CCC(N)=O)C(=O)O)[C@@H](C)O)[C@@H](C)CC)C1=O (stereo partly drawn) [Example 40, [Chc-Ser^8, Cys(Psu)^31]hGIP(8-42)-OH] (Cyclohexanecarbonyl-SDYSIAMDKIHQQDFVNWLLAQKC(X1)KKNDWKHNITQ-OH) | 246 min | 414 min | – | –
CC[C@H](C)[C@H](NC(=O)[C@H](CO)NC(=O)[C@H](Cc1ccc(O)cc1)NC(=O)[C@H](CC(=O)O)NC(=O)[C@H](CO)NC(=O)C1(NC(C)=O)CCCCC1)C(=O)N[C@@H](C)C(=O)N[C@@H](CCSC)C(=O)N[C@@H](CC(=O)O)C(=O)N[C@@H](CCCCN)C(=O)N[C@H](C(=O)N[C@@H](Cc1c[nH]cn1)C(=O)N[C@@H](CCC(N)=O)C(=O)N[C@@H](CCC(N)=O)C(=O)N[C@@H](CC(=O)O)C(=O)N[C@@H](Cc1ccccc1)C(=O)N[C@H](C(=O)N[C@@H](CC(N)=O)C(=O)N[C@@H](Cc1c[nH]c2ccccc12)C(=O)N[C@@H](CC(C)C)C(=O)N[C@@H](CC(C)C)C(=O)N[C@@H](C)C(=O)N[C@@H](CCC(N)=O)C(=O)N[C@@H](CCCCN)C(=O)N[C@H](Cc1ccc2ccccc2c1)C(=O)N[C@@H](CCCCN)C(=O)N[C@@H](CCCCN)C(=O)N[C@@H](CC(N)=O)C(=O)N[C@@H](CC(=O)O)C(=O)N[C@@H](Cc1c[nH]c2ccccc12)C(=O)N[C@@H](CCCCN)C(=O)N[C@@H](Cc1c[nH]cn1)C(=O)N[C@@H](CC(N)=O)C(=O)N[C@H](C(=O)N[C@H](C(=O)N[C@@H](CCC(N)=O)C(=O)O)[C@@H](C)O)[C@@H](C)CC)C(C)C)[C@@H](C)CC [Example 25, (Ac-A6c^7, D-2Nal^31)hGIP(7-42)-OH] (HELM PEPTIDE1{[ac].[O=C(C1(N[*:1])CCCCC1)[*:2]].S.D.Y.S.I.A.M.D.K.I.H.Q.Q.D.F.V.N.W.L.L.A.Q.K.[O=C([C@@H](Cc1ccc2ccccc2c1)N[*:1])[*:2]].K.K.N.D.W.K.H.N.I.T.Q}$$$$V2.0) | > 3000 min | 822 min | – | –
CCCCCC(=O)NCCC[C@H](NC(=O)[C@H](CCCCN)NC(=O)[C@H](CCC(N)=O)NC(=O)[C@H](C)NC(=O)[C@H](CC(C)C)NC(=O)[C@H](CC(C)C)NC(=O)[C@H](Cc1c[nH]c2ccccc12)NC(=O)[C@H](CC(N)=O)NC(=O)[C@@H](NC(=O)[C@H](Cc1ccccc1)NC(=O)[C@H](CC(=O)O)NC(=O)[C@H](CCC(N)=O)NC(=O)[C@H](CCC(N)=O)NC(=O)[C@H](Cc1c[nH]cn1)NC(=O)[C@@H](NC(=O)[C@H](CCCCN)NC(=O)[C@H](CC(=O)O)NC(=O)[C@H](CCSC)NC(=O)[C@H](C)NC(=O)[C@@H](NC(=O)[C@H](CO)NC(=O)[C@H](Cc1ccc(O)cc1)NC(=O)[C@H](CC(=O)O)NC(=O)[C@H](CO)NC(=O)C1(N)CCCCC1)[C@@H](C)CC)[C@@H](C)CC)C(C)C)C(=O)N[C@@H](CCCCN)C(=O)N[C@@H](CCCCN)C(=O)N[C@@H](CC(N)=O)C(=O)N[C@@H](CC(=O)O)C(=O)N[C@@H](Cc1c[nH]c2ccccc12)C(=O)N[C@@H](CCCCN)C(=O)N[C@@H](Cc1c[nH]cn1)C(=O)N[C@@H](CC(N)=O)C(=O)N[C@H](C(=O)N[C@H](C(=O)N[C@@H](CCC(N)=O)C(=O)O)[C@@H](C)O)[C@@H](C)CC [Example 17, [A6c^7, Orn^31(N-C(O)-(CH2)4-CH3)]hGIP(7-42)-OH] (H-[Ac6c]SDYSIAMDKIHQQDFVNWLLAQK[Orn](Hexanoyl)KKNDWKHNITQ-OH) | – | – | > 3000 min | 564 min
CCCN1C(=O)CC(SC[C@H](NC(=O)[C@H](CCCCN)NC(=O)[C@H](CCCCN)NC(=O)CNC(=O)[C@H](CCCCN)NC(=O)[C@H](CCC(N)=O)NC(=O)[C@H](C)NC(=O)[C@H](CC(C)C)NC(=O)[C@H](CC(C)C)NC(=O)[C@H](Cc2c[nH]c3ccccc23)NC(=O)[C@H](CC(N)=O)NC(=O)[C@@H](NC(=O)[C@H](Cc2ccccc2)NC(=O)[C@H](CC(=O)O)NC(=O)[C@H](CCC(N)=O)NC(=O)[C@H](CCC(N)=O)NC(=O)[C@H](Cc2c[nH]cn2)NC(=O)[C@@H](NC(=O)[C@H](CCCCN)NC(=O)[C@H](CC(=O)O)NC(=O)[C@H](CCSC)NC(=O)[C@H](C)NC(=O)[C@@H](NC(=O)[C@H](CO)NC(=O)[C@H](Cc2ccc(O)cc2)NC(=O)[C@H](CC(=O)O)NC(=O)[C@H](CO)NC(=O)C2(NC(C)=O)CCCCC2)[C@@H](C)CC)[C@@H](C)CC)C(C)C)C(=O)N[C@@H](CC(=O)O)C(=O)N[C@@H](Cc2c[nH]c3ccccc23)C(=O)N[C@@H](CCCCN)C(=O)N[C@@H](Cc2c[nH]cn2)C(=O)N[C@@H](CC(N)=O)C(=O)N[C@H](C(=O)N[C@H](C(=O)N[C@@H](CCC(N)=O)C(=O)O)[C@@H](C)O)[C@@H](C)CC)C1=O (stereo partly drawn) [Example 7, [Ac-A6c^7, Cys(Psu)^34]hGIP(7-42)-OH] (Ac-[Ac6c]SDYSIAMDKIHQQDFVNWLLAQKGKKC(X1)DWKHNITQ-OH) | 474 min | 96 min | – | –
